In patent publication US9187477B2, “Azabenzimidazole derivatives” (Boehringer Ingelheim International GmbH, priority 2013, dated 2015):
pEC50: −log10 of the molar value.

Tests used:
[1] = biological target: AMPK complex 1 (containing alpha1beta1gamma1) (Homo sapiens (Human), UniProt Q13131+Q9Y478); assay: in vitro AMPK activation assay (ADP-Glo Kinase Assay); assay type: biochemical; conditions: AMPK alpha1beta1gamma1, ATP 30 μM, peptide 1 μM, 60 min, room temperature
Text: Activated AMPK complex 1 (containing alpha1beta1gamma1) was obtained from baculovirus expression system. The gene encoding AMPK alpha1 was cloned into the pACG2T vector (BD Biosciences) to obtain a N-terminal Glutathion S transferase (GST)-fusion protein. The genes encoding AMPK beta1 and gamma1 were cloned into the p2Bac dual multiple cloning site vector (Invitrogen) with beta1 under the control of the p10 promoter and gamma1 under the control of the PH promoter. The transfer vectors containing AMPK were co-transfected individually with AcPNV BacMagic-3 DNA (EMD Millipore) in Sf9 cells and the recombinant baculoviruses were harvested after 5 days, followed by 3 rounds of amplification of the virus stock in Sf9 cells. AMPK (alpha1beta1gamma1) was expressed in High Five 5 cells by co-infection of recombinant alpha1 virus and recombinant beta1/gamma1 virus for 72 h at 27° C. Cells were harvested by centrifugation and lysed by 3 freeze/thaw cycles in PBS with 10% glycerol and protease inhibitor cocktail (Roche). After centrifugation AMPK a1b1g1 in the supernatant was captured by immobilized glutathione (GE Healthcare), impurities were washed away with PBS and AMPK alpha1beta1gamma1 was eluted with PBS containing 20 mM reduced gluthathione. The protein buffer was then exchanged to PBS with 10% glycerol and protein concentration was determined by UV absorbance.
The white 384-well Optiplates (cat. no. 6007299) were purchased from PerkinElmer. The V9101 ADP-Glo Kinase Assay and ultra pure ATP (V915A) was purchased from Promega. The substrate for AMPK (NH2-HMRSAMSGLHLVKRR_CONH2) was purchased from Upstate (12-355).
Compounds were tested in either serial dilutions or single dose concentrations. The serial compound dilutions were prepared in 100% DMSO automatically. The final DMSO concentration in the assay was 0.1%.
The Compound Stock Solutions were 10 mM in 100% DMSO. The compounds were solubilised at room temperature.
In the 384-well plates 1.25 ul of test compound in assay buffer was mixed with 1.25 ul of AMPK and 1.25 μl of the peptide (final concentration of 1 μM) and 1.25 μl of ATP (final concentration of 30 μM), both dissolved in assay buffer. This step was followed by an incubation time of 60 min. Then 5 μl of ADP Glo Reagent was added. This was followed by 40 min of incubation. Then 10 μl of Kinase Detection Reagent was admixed. The plates were sealed and after an incubation period of 30 min, the luminescence signal was measured in an Envision reader. All incubation steps were accomplished at room temperature.
Each assay microtiter plate contained wells with vehicle controls instead of compound (0.1% DMSO in water) as reference for the low signal (100% CTL, low signal), and wells with serial dilutions of AMP (final 30 μM) as reference for high signals.
The luminescence signal generated was proportional to the ADP concentration produced and was correlated with AMPK activity. The analysis of the data was performed by the calculation of the percentage of ATP consumption of AMPK in the presence of the test compound compared to the consumption of ATP in the presence of AMPK without compound. (RLU(sample)/RLU(low control))*100[RLU=relative luminescence units]
An activator of the AMPK enzyme gave values above 100% CTL.
EC50 values based on dose response curves are calculated with the XIFIT software using the 4 Parameter Logistic Model or Sigmoidal Dose-Response Model.

[2] = Metabolic stability: metabolic degradation with pooled human liver microsomes; assay type: in vitro ADME; conditions: for c (control) (metabolic stability), remaining test compound after NADPH independent incubation: incubation without NADPH, after 2 hours, human liver microsomes; for t1/2 INVITRO: pooled human liver microsomes 1 mg/ml, 37° C., test compound 1 μM, NADPH 1 mM
Protocol: The metabolic degradation of the test compound is assayed at 37° C. with pooled human liver microsomes. The final incubation volume of 100 μl per time point contains TRIS buffer pH 7.6 at room temperature (0.1 M), magnesium chloride (5 mM), microsomal protein (1 mg/ml) and the test compound at a final concentration of 1 μM.
Following a short preincubation period at 37° C., the reactions were initiated by addition of beta-nicotinamide adenine dinucleotide phosphate, reduced form (NADPH, 1 mM) and terminated by transferring an aliquot into solvent after different time points.
Additionally, the NADPH-independent degradation was monitored in incubations without NADPH, terminated at 2 hour time point. The [%] remaining test compound after NADPH independent incubation is reflected by the parameter c (control) (metabolic stability). A c (control) (metabolic stability) value around 100% excludes cofactor independent activities (e.g. from esterases).
The quenched incubations are pelleted by centrifugation (10000 g, 5 min).
An aliquot of the supernatant is assayed by LC-MS/MS for the amount of parent compound. The half-life (t1/2 INVITRO) is determined by the slope of the semilogarithmic plot of the concentration-time profile.

Chain of AMPK complex 1 (containing alpha1beta1gamma1) (Q13131 whole entry, the tested form may be a part): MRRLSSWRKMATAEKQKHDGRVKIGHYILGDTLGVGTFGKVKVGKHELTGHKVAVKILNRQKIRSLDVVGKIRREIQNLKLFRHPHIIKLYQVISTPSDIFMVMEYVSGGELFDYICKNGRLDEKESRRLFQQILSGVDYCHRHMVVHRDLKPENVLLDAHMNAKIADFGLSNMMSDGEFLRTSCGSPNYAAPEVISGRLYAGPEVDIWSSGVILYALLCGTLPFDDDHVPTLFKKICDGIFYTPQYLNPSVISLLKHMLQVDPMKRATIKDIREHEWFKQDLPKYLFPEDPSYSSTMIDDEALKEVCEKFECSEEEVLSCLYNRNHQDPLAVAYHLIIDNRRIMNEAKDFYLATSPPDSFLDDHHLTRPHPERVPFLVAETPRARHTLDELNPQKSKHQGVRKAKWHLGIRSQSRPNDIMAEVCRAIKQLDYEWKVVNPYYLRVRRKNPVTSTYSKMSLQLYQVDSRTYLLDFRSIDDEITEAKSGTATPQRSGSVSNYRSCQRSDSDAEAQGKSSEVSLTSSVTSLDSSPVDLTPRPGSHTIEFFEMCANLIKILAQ
Chain of AMPK complex 1 (containing alpha1beta1gamma1) (Q9Y478 whole entry, the tested form may be a part): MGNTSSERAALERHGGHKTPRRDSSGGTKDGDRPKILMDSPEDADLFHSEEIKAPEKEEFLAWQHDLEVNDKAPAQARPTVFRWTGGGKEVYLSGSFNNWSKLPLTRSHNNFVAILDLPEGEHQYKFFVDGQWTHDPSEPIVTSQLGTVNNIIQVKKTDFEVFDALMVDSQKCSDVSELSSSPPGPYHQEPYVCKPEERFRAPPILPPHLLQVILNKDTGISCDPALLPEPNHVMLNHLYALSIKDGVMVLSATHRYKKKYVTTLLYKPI
Chain of AMPK complex 1 (containing alpha1beta1gamma1) (P54619 whole entry partner, the tested form may be a part): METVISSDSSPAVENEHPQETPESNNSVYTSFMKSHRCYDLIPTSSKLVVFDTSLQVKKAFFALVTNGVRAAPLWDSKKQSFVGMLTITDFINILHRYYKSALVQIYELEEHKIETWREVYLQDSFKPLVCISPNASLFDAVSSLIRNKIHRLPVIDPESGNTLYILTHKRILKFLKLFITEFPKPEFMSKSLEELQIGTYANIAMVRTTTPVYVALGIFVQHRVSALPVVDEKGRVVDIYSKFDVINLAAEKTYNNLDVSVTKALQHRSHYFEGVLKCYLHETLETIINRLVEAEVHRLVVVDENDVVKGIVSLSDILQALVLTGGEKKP

c (control) (metabolic stability), remaining test compound after NADPH independent incubation [2] [%]	t1/2 INVITRO [2] [h]	SMILES	pEC50 [1]
		O=C(O[C@H]1CC[C@@H](c2ccc(-c3nc4[nH]c(O[C@@H]5CO[C@H]6[C@@H]5OC[C@H]6O)nc4cc3Cl)cc2)CC1)N1CCOCC1 [Example 12, (cis)-4-(4-(6-Chloro-2-((3R,3aR,6R,6aR)-6-hydroxyhexahydrofuro[3,2-b]furan-3-yloxy)-3H-imidazo[4,5-b]pyridin-5-yl)phenyl)cyclohexyl morpholine-4-carboxylate]	5.88
106	1.13	O=C(N[C@H]1CC[C@@H](c2ccc(-c3nc4[nH]c(O[C@@H]5CO[C@H]6[C@@H]5OC[C@H]6O)nc4cc3Cl)cc2)CC1)OC1CCOCC1 [Example 5, Tetrahydro-2H-pyran-4-yl (cis)-4-(4-(6-chloro-2-((3R,3aR,6R,6aR)-6-hydroxyhexahydrofuro[3,2-b]furan-3-yloxy)-3H-imidazo[4,5-b]pyridin-5-yl)phenyl)cyclohexylcarbamate]	6.92
		O=C(O[C@H]1CC[C@@H](c2ccc(-c3nc4[nH]c(O[C@@H]5CO[C@H]6[C@@H]5OC[C@H]6O)nc4cc3Cl)cc2)CC1)N1CCCC1 [Example 13, (cis)-4-(4-(6-Chloro-2-((3R,3aR,6R,6aR)-6-hydroxyhexahydrofuro[3,2-b]furan-3-yloxy)-3H-imidazo[4,5-b]pyridin-5-yl)phenyl)cyclohexyl pyrrolidine-1-carboxylate]	5.69
105	>2.17	CCNC(=O)O[C@H]1CC[C@@H](c2ccc(-c3nc4[nH]c(O[C@@H]5CO[C@H]6[C@@H]5OC[C@H]6O)nc4cc3Cl)cc2)CC1 [Example 10, (cis)-4-(4-(6-Chloro-2-((3R,3aR,6R,6aR)-6-hydroxyhexahydrofuro[3,2-b]furan-3-yloxy)-3H-imidazo[4,5-b]pyridin-5-yl)phenyl)cyclohexyl ethylcarbamate]	7.59
102	>2.17	CC(C)NC(=O)O[C@H]1CC[C@H](c2ccc(-c3nc4[nH]c(O[C@@H]5CO[C@H]6[C@@H]5OC[C@H]6O)nc4cc3Cl)cc2)CC1 [Example 8, (trans)-4-(4-(6-Chloro-2-((3R,3aR,6R,6aR)-6-hydroxyhexahydrofuro[3,2-b]furan-3-yloxy)-3H-imidazo[4,5-b]pyridin-5-yl)phenyl)cyclohexyl isopropylcarbamate]	6.47
100	>2.17	CCOC(=O)NC1CCN(c2ccc(-c3nc4[nH]c(O[C@@H]5CO[C@H]6[C@@H]5OC[C@H]6O)nc4cc3Cl)cc2)CC1 [Example 1, Ethyl 1-(4-(6-chloro-2-((3R,3aR,6R,6aR)-6-hydroxyhexahydrofuro[3,2-b]furan-3-yloxy)-3H-imidazo[4,5-b]pyridin-5-yl)phenyl)piperidin-4-ylcarbamate]	8.92
117	0.317	O=C(N[C@H]1CC[C@@H](c2ccc(-c3nc4[nH]c(O[C@@H]5CO[C@H]6[C@@H]5OC[C@H]6O)nc4cc3Cl)cc2)CC1)OC1CCCC1 [Example 3, Cyclopentyl (cis)-4-(4-(6-chloro-2-((3R,3aR,6R,6aR)-6-hydroxyhexahydrofuro[3,2-b]furan-3-yloxy)-3H-imidazo[4,5-b]pyridin-5-yl)phenyl)cyclohexylcarbamate]	6.97
98	>2.17	O=C(O[C@H]1CC[C@H](c2ccc(-c3nc4[nH]c(O[C@@H]5CO[C@H]6[C@@H]5OC[C@H]6O)nc4cc3Cl)cc2)CC1)N1CCOCC1 [Example 6, (trans)-4-(4-(6-Chloro-2-((3R,3aR,6R,6aR)-6-hydroxyhexahydrofuro[3,2-b]furan-3-yloxy)-3H-imidazo[4,5-b]pyridin-5-yl)phenyl)cyclohexyl morpholine-4-carboxylate]	8.22
109	1.85	CN(C)C(=O)OC1CCN(c2ccc(-c3nc4[nH]c(O[C@@H]5CO[C@H]6[C@@H]5OC[C@H]6O)nc4cc3Cl)cc2)CC1 [Example 2, 1-(4-(6-Chloro-2-((3R,3aR,6R,6aR)-6-hydroxyhexahydrofuro[3,2-b]furan-3-yloxy)-3H-imidazo[4,5-b]pyridin-5-yl)phenyl)piperidin-4-yl dimethylcarbamate]	7.49
103	>2.17	CC(C)OC(=O)N[C@H]1CC[C@@H](c2ccc(-c3nc4[nH]c(O[C@@H]5CO[C@H]6[C@@H]5OC[C@H]6O)nc4cc3Cl)cc2)CC1 [Example 4, Isopropyl (cis)-4-(4-(6-chloro-2-((3R,3aR,6R,6aR)-6-hydroxyhexahydrofuro[3,2-b]furan-3-yloxy)-3H-imidazo[4,5-b]pyridin-5-yl)phenyl)cyclohexylcarbamate]	7.92
		CC(C)NC(=O)OC1CCN(c2ccc(-c3nc4[nH]c(O[C@@H]5CO[C@H]6[C@@H]5OC[C@H]6O)nc4cc3Cl)cc2)CC1 [Example 14, 1-(4-(6-Chloro-2-((3R,3aR,6R,6aR)-6-hydroxyhexahydrofuro[3,2-b]furan-3-yloxy)-3H-imidazo[4,5-b]pyridin-5-yl)phenyl)piperidin-4-yl isopropylcarbamate]	6.24
		CCNC(=O)O[C@H]1CC[C@H](c2ccc(-c3nc4[nH]c(O[C@@H]5CO[C@H]6[C@@H]5OC[C@H]6O)nc4cc3Cl)cc2)CC1 [Example 7, (trans)-4-(4-(6-Chloro-2-((3R,3aR,6R,6aR)-6-hydroxyhexahydrofuro[3,2-b]furan-3-yloxy)-3H-imidazo[4,5-b]pyridin-5-yl)phenyl)cyclohexyl ethylcarbamate]	6.33
		CC(C)OC(=O)NC1CCN(c2ccc(-c3nc4[nH]c(O[C@@H]5CO[C@H]6[C@@H]5OC[C@H]6O)nc4cc3Cl)cc2)CC1 [Example 16, Isopropyl 1-(4-(6-chloro-2-((3R,3aR,6R,6aR)-6-hydroxyhexahydrofuro[3,2-b]furan-3-yloxy)-3H-imidazo[4,5-b]pyridin-5-yl)phenyl)piperidin-4-ylcarbamate]	6.54
		O=C(OC1CCN(c2ccc(-c3nc4[nH]c(O[C@@H]5CO[C@H]6[C@@H]5OC[C@H]6O)nc4cc3Cl)cc2)CC1)N1CCOCC1 [Example 15, 1-(4-(6-Chloro-2-((3R,3aR,6R,6aR)-6-hydroxyhexahydrofuro[3,2-b]furan-3-yloxy)-3H-imidazo[4,5-b]pyridin-5-yl)phenyl)piperidin-4-yl morpholine-4-carboxylate]	6.88
